# Substitutions are numbered along the chain they refer to.
# Assays:
# [1] = biological target: T1, Alcaligenes faecalis Penicillin G acylase mutant B:L56V (Alcaligenes faecalis, UniProt O34142, L321V); assay: NIPAB kinetics and phenylacetic acid product inhibition, mutant B:L56V; type: biochemical; conditions: from progress curves of NIPAB deacylation, 25° C., 0.1 M NaH2PO4.H2O buffer pH 7.5, read-out: Ki Phenylacetic acid (inhibition constant, dissociation constant)
# T1 construct: alpha 202 aa, beta 551 aa; recombinant, E. coli host
# T1 sequence (O34142 27-228): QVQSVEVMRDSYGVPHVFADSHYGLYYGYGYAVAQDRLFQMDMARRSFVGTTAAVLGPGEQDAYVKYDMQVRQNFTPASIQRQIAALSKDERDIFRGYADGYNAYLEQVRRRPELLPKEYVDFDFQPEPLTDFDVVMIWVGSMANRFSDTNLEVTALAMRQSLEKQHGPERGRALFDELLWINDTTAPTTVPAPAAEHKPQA
# T1 sequence (O34142 266-816 L321V): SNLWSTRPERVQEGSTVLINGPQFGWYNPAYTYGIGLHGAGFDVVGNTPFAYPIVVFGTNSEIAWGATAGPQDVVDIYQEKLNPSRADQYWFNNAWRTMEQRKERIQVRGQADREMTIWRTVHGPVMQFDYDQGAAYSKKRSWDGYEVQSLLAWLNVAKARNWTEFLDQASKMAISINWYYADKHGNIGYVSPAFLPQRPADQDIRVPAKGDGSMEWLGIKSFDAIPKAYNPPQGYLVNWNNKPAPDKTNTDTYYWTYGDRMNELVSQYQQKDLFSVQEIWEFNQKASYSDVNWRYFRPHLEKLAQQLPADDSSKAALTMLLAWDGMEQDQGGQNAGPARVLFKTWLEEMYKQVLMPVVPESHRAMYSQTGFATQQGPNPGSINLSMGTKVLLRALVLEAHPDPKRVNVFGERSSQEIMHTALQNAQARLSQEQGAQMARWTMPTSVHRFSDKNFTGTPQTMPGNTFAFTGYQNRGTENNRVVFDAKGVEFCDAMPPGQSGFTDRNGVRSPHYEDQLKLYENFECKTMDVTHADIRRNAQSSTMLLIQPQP
# Procedure: (§1) In a continuous assay Penicillin G acylase was assayed spectro-fotometrically with the chromogenic substrate NIPAB [6-nitro-3-phenylacetamido-benzoic acid]. The liberation of 3-amino-6-nitrobenzoic acid was monitored by measuring the extinction at 405 nm in a Kontron 610 kinetic spectrofotometer. Measuring maximal rate, the assays were performed at 25° C. using 20 mM NaH2 PO4.H2 O at pH 7.5 with 20 mM NIPAB and 100 μl enzym solution (at a proper dilution). Initial rate measurements were performed with varying concentration of NIPAB.
# (§2) Initial rate measurements were performed with excess substrate over the enzyme. Catalytic parameters were derived from least-squares fitting of the measured initial rates plotted for various substrate concentrations according to the Michaelis-Menten equation.
# (§3) The complete conversion of NIPAB was followed as a funtion of time at 20, 50 and 100 μM NIPAB by following the increase in absorbtion at 405 nm. Products of this conversion are phenylacetic acid and 3-amino-6-nitrobenzoic acid. The conversion was performed at 25° C. in 0.1 M NaH2 PO4.H2 O buffer pH 7.5. The progress curves of the deacylation of NIPAB could be fitted very well when product inhibition by phenylacetic acid was taken into account. […]
# [2] = biological target: T2, Alcaligenes faecalis Penicillin G acylase mutant B:I177S (Alcaligenes faecalis, UniProt O34142, I442S); assay: NIPAB kinetics and phenylacetic acid product inhibition, mutant B:I177S; type: biochemical; conditions: from progress curves of NIPAB deacylation, 25° C., 0.1 M NaH2PO4.H2O buffer pH 7.5, read-out: Ki Phenylacetic acid (inhibition constant, dissociation constant)
# T2 construct: alpha 202 aa, beta 551 aa; recombinant, E. coli host
# T2 sequence (O34142 27-228): T1 sequence (O34142 27-228)
# T2 sequence (O34142 266-816 I442S): T1 sequence (O34142 266-816 L321V) with V56L, I177S
# Procedure: as §1, §2, §3
structure (smiles),measurement,setting,value
O=C(O)Cc1ccccc1 [phenylacetic acid],Ki,[1],31 µM
same,Ki,[2],252 µM
